Results as given in ChEMBL document CHEMBL4680133, “Novel nitroimidazole derivatives evaluated for their trypanocidal, cytotoxic, and genotoxic activities” (Eur J Med Chem, 2020).

Legend:
HepG2 [1] = test: Cytotoxicity against human HepG2 cells at 21.3 to 427 uM measured after 24 hrs by LDH assay; type: cell-based; settings: hepg2, 24 h, dose 21.3-427 µM
[2] = Mutagenicity in Salmonella typhimurium TA97 assessed as revertant/ug measured after 20 mins in absence of S9 fraction by microsome assay; type: toxicity; settings: salmonella enterica subsp. enterica serovar typhimurium, microsomes
HepG2 [3] = test: Genotoxicity in human HepG2 assessed as number of micronucleated cells at 213 uM measured after 24 hrs by micronucleus test (reference value: 14 to 18); type: toxicity, cell-based; settings: hepg2, 24 h
Trypanosoma cruzi [4] = test: Antitrypanosomal activity against bloodstream form of Trypanosoma cruzi Y trypomastigotes infected in African green monkey Vero cells assessed as increase in parasite lysis measured after 24 hrs by Neubauer chamber method; type: functional, organism-based
Trypanosoma cruzi [5] = test: Antitrypanosomal activity against Trypanosoma cruzi Y axenic amastigotes infected in African green monkey Vero cells after 24 hrs by MTT assay; type: functional, organism-based
[6] = Mutagenicity in Salmonella typhimurium TA100 assessed as revertant/ug measured after 20 mins in presence of S9 fraction by microsome assay; type: toxicity, subcellular; settings: salmonella enterica subsp. enterica serovar typhimurium, s9, 20 min
[7] = Mutagenicity in Salmonella typhimurium TA97 assessed as revertant/ug measured after 20 mins in presence of S9 fraction by microsome assay; type: toxicity, subcellular; settings: salmonella enterica subsp. enterica serovar typhimurium, s9, 20 min
[8] = Genotoxicity in human HepG2 assessed as survival at 427 uM measured after 24 hrs by micronucleus test (reference value: 100%); type: toxicity, cell-based; settings: HepG2 cells, read-out: Survival
[9] = Mutagenicity in Salmonella typhimurium TA97 measured after 20 mins in absence of S9 fraction by microsome assay; type: toxicity; settings: salmonella enterica subsp. enterica serovar typhimurium, microsomes, dose 5-100 µg
RAW264.7 [10] = test: Genotoxicity in mouse RAW264.7 cells assessed as mitotic index at 427 uM measured after 24 hrs by micronucleus test (reference value: 40 to 249); type: toxicity, cell-based; settings: raw264.7, 24 h
[11] = Cytotoxicity against human HepG2 cells assessed as reduction in cell viability measured after 24 hrs by WST1 assay; type: cell-based
[12] = Selectivity index, ratio of GI50 for mouse RAW264.7 cells assessed as reduction in cell viability measured after 24 hrs by WST1 assay to IC50 for antitrypanosomal activity against bloodstream form of Trypanosoma cruzi Y trypomastigotes infected in African green monkey Vero cells; type: toxicity; settings: read-out: Selectivity Index
HepG2 [13] = test: Genotoxicity in human HepG2 assessed as mitotic index at 213 uM measured after 24 hrs by micronucleus test (reference value: 61 to 108); type: toxicity, cell-based; settings: hepg2, 24 h
[14] = Mutagenicity in Salmonella typhimurium TA98 measured after 20 mins in absence of S9 fraction by microsome assay; type: toxicity; settings: salmonella enterica subsp. enterica serovar typhimurium, microsomes, dose 5-100 µg
RAW264.7 [15] = test: Genotoxicity in mouse RAW264.7 cells assessed as mitotic index at 2135 uM measured after 24 hrs by micronucleus test (reference value: 40 to 249); type: toxicity, cell-based; settings: raw264.7, 24 h
[16] = Mutagenicity in Salmonella typhimurium YG1024 at 5 to 100 ug/plate after 20 mins by microsome assay; type: toxicity; settings: salmonella enterica subsp. enterica serovar typhimurium, microsomes, dose 5-100 µg
[17] = Genotoxicity in mouse RAW264.7 cells assessed as survival at 427 uM measured after 24 hrs by micronucleus test (reference value: 100%); type: toxicity, cell-based; settings: read-out: Survival
[18] = Mutagenicity in Salmonella typhimurium TA102 measured after 20 mins in presence of S9 fraction by microsome assay; type: toxicity, subcellular; settings: salmonella enterica subsp. enterica serovar typhimurium, s9, 20 min, dose 5-100 µg
[19] = Selectivity index, ratio of GI50 for mouse RAW264.7 cells assessed as reduction in cell viability measured after 24 hrs by WST1 assay to IC50 for antitrypanosomal activity against Trypanosoma cruzi Y axenic amastigotes infected in African green monkey Vero cells; type: toxicity; settings: read-out: Selectivity Index
[20] = Mutagenicity in Salmonella typhimurium YG1021 at 5 to 100 ug/plate after 20 mins by microsome assay; type: toxicity; settings: salmonella enterica subsp. enterica serovar typhimurium, microsomes
[21] = Mutagenicity in Salmonella typhimurium TA102 measured after 20 mins in absence of S9 fraction by microsome assay; type: toxicity; settings: salmonella enterica subsp. enterica serovar typhimurium, microsomes, dose 5-100 µg
RAW264.7 [22] = test: Genotoxicity in mouse RAW264.7 cells assessed as mitotic index at 4270 uM measured after 24 hrs by micronucleus test (reference value: 40 to 249); type: toxicity, cell-based; settings: raw264.7, 24 h
[23] = Mutagenicity in Salmonella typhimurium TA100 assessed as revertant/ug measured after 20 mins in absence of S9 fraction by microsome assay; type: toxicity; settings: salmonella enterica subsp. enterica serovar typhimurium, microsomes
[24] = Selectivity index, ratio of GI50 for human HepG2 cells assessed as reduction in cell viability measured after 24 hrs by WST1 assay to IC50 for antitrypanosomal activity against Trypanosoma cruzi Y axenic amastigotes infected in African green monkey Vero cells; type: toxicity; settings: read-out: Selectivity Index
[25] = Genotoxicity in mouse RAW264.7 cells assessed as survival at 4270 uM measured after 24 hrs by micronucleus test (reference value: 100%); type: toxicity, cell-based; settings: read-out: Survival
RAW264.7 [26] = test: Genotoxicity in mouse RAW264.7 cells assessed as mitotic index at 213 uM measured after 24 hrs by micronucleus test (reference value: 40 to 249); type: toxicity, cell-based; settings: raw264.7, 24 h
[27] = Mutagenicity in Salmonella typhimurium TA100 measured after 20 mins in absence of S9 fraction by microsome assay; type: toxicity; settings: salmonella enterica subsp. enterica serovar typhimurium, microsomes, dose 5-100 µg
[28] = Cytotoxicity against mouse RAW264.7 cells assessed as reduction in cell viability measured after 24 hrs by WST1 assay; type: cell-based
RAW264.7 [29] = test: Genotoxicity in mouse RAW264.7 cells assessed as number of micronucleated cells at 213 uM measured after 24 hrs by micronucleus test (reference value: 12 to 15); type: toxicity, cell-based; settings: raw264.7, 24 h
[30] = Toxicity in Salmonella typhimurium YG1024 at 5 to 100 ug/plate after 20 mins by colony counting method; settings: salmonella enterica subsp. enterica serovar typhimurium, dose 5-100 µg
[31] = Selectivity index, ratio of GI50 for human HepG2 cells assessed as reduction in cell viability measured after 24 hrs by WST1 assay to IC50 for antitrypanosomal activity against bloodstream form of Trypanosoma cruzi Y trypomastigotes infected in African green monkey Vero cells; type: toxicity; settings: read-out: Selectivity Index
[32] = Mutagenicity in Salmonella typhimurium TA97 measured after 20 mins in presence of S9 fraction by microsome assay; type: toxicity, subcellular; settings: salmonella enterica subsp. enterica serovar typhimurium, s9, 20 min, dose 5-100 µg
[33] = Toxicity in Salmonella typhimurium YG1021 at 5 to 100 ug/plate after 20 mins by colony counting method; settings: salmonella enterica subsp. enterica serovar typhimurium, dose 5-100 µg
[34] = Mutagenicity in Salmonella typhimurium TA98 measured after 20 mins in presence of S9 fraction by microsome assay; type: toxicity, subcellular; settings: salmonella enterica subsp. enterica serovar typhimurium, s9, 20 min, dose 5-100 µg
[35] = Mutagenicity in Salmonella typhimurium TA100 measured after 20 mins in presence of S9 fraction by microsome assay; type: toxicity, subcellular; settings: salmonella enterica subsp. enterica serovar typhimurium, s9, 20 min, dose 5-100 µg
HepG2 [36] = test: Genotoxicity in human HepG2 assessed as mitotic index at 3500 uM measured after 24 hrs by micronucleus test (reference value: 61 to 108); type: toxicity, cell-based; settings: hepg2, 24 h
[37] = Genotoxicity in mouse RAW264.7 cells assessed as survival at 1750 uM measured after 24 hrs by micronucleus test (reference value: 100%); type: toxicity, cell-based; settings: read-out: Survival
[38] = Genotoxicity in mouse RAW264.7 cells assessed as survival at 350 uM measured after 24 hrs by micronucleus test (reference value: 100%); type: toxicity, cell-based; settings: read-out: Survival
RAW264.7 [39] = test: Genotoxicity in mouse RAW264.7 cells assessed as mitotic index at 3500 uM measured after 24 hrs by micronucleus test (reference value: 40 to 249); type: toxicity, cell-based; settings: raw264.7, 24 h

For `Cn1cnc([N+](=O)[O-])c1-n1cc(C2CC2)nn1`, the Activity (HepG2 [1]) was “Non-Toxic”, the Activity [2] was 6.31 revertants/µg and the Activity (HepG2 [3]) was 17. For the same compound, the IC50 (Trypanosoma cruzi [4]) was 5.4 µM, the IC50 (Trypanosoma cruzi [5]) was 12 µM and the Activity [6] was 0.278 revertants/µg. The Activity [7] was 3.833 µg, the viability at 24 h, 427 µM [8] was 99% and the Activity [9] was “Toxic”. The Activity_index (RAW264.7 [10]) was 34, the GI50 at 24 h [11] was greater than 427 µM and the selectivity ratio at 24 h [12] was greater than 79. For the same compound, the Activity_index (HepG2 [13]) was 97, the Activity [14] was “Non-Toxic” and the Activity_index (RAW264.7 [15]) was 37. For the same compound, the Activity [16] was “Non-Toxic”, the viability at 24 h, 427 µM [17] was 99% and the Activity [18] was “Toxic”. For the same compound, the selectivity ratio at 24 h [19] was greater than 35.5, the Activity [20] was “Non-Toxic” and the Activity [21] was “Toxic”. The Activity_index (RAW264.7 [22]) was 36, the Activity [23] was 2.42 revertants/µg and the selectivity ratio at 24 h [24] was greater than 35.5. For the same compound, the viability at 24 h, 4270 µM [25] was 94%, the Activity_index (RAW264.7 [26]) was 30 and the Activity [27] was “Toxic”. The GI50 at 24 h [28] was greater than 427 µM, the Activity (RAW264.7 [29]) was 12 and the Activity [30] was “Non-Toxic”. The selectivity ratio at 24 h [31] was greater than 79, the Activity [32] was “Toxic” and the Activity [33] was “Non-Toxic”. The Activity [34] was “Non-Toxic” and the Activity [35] was “Toxic”.

Compound `CCCCCc1ccc(-c2cn(-c3c([N+](=O)[O-])ncn3C)nn2)cc1` has an Activity [2] of 1.34 revertants/µg, an IC50 (Trypanosoma cruzi [4]) of 12.9 µM and an Activity_index (HepG2 [36]) of 53. It also gave an IC50 (Trypanosoma cruzi [5]) of 142 µM, an Activity [6] of 2.46 revertants/µg and a viability at 24 h, 1750 µM [37] of 85%. For the same compound, the viability at 24 h, 350 µM [38] was 99%, the Activity [7] was 8.494 µg and the Activity [9] was “Toxic”. The GI50 at 24 h [11] was greater than 350 µM, the selectivity ratio at 24 h [12] was 2.77 and the Activity [14] was “Non-Toxic”. For the same compound, the Activity_index (RAW264.7 [39]) was 115, the Activity [16] was “Toxic” and the Activity [18] was “Toxic”. For the same compound, the selectivity ratio at 24 h [19] was greater than 0.25, the Activity [20] was “Toxic” and the Activity [21] was “Toxic”. The Activity [23] was 2.96 revertants/µg, the selectivity ratio at 24 h [24] was greater than 2.46 and the Activity [27] was “Toxic”. The GI50 at 24 h [28] was 35.8 µM, the selectivity ratio at 24 h [31] was 27 and the Activity [32] was “Toxic”. For the same compound, the Activity [33] was “Toxic”, the Activity [34] was “Non-Toxic” and the Activity [35] was “Toxic”.
